# Measurements as given in patent US6444617B1, “Fused-heterocycle dicarboxylic acid diamide derivatives or salts thereof, herbicide and usage thereof” (Nihon Nohyaku Co., Ltd., priority 1998, dated 2002).
# Key:
# Type in all cases: in vivo
# [1] = tested on: wheat (Wh); experiment: Test Example 3: phytotoxicity to upland crop plants, treatment before emergence; details: dosage 5 kg/ha
# Summary of the method: (§1)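 Pre-emergence spray of a liquid preparation at a prescribed compound concentration. Soybean and wheat injury was scored against a phytotoxicity criterion 14 days after treatment, alongside weed control.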
# [2] = tested on: soybean plant (So); experiment: as above; details: dosage 5 kg/ha
# Summary of the method: as §1
# [3] = tested on: barnyard grass (Echinochloa crus-galli Beauv.); experiment: Test Example 1: herbicidal effect on paddy field weeds before emergence; details: Dosage 5 kg/ha
# Summary of the method: (§2)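 Grading reflects percent control relative to untreated plots, evaluated three weeks post-application. Treatment was a soil application of compound solution, predetermined dose, made to paddy-state pots before weed seeds germinated.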
# [4] = tested on: bulrush (Scirpus juncoides Roxb.); experiment: as above; details: Dosage 5 kg/ha
# Summary of the method: as §2
# [5] = tested on: cleavers (Galium aparine L.), Ga; experiment: Test Example 4: herbicidal effect on upland weeds after emergence; details: dosage 5 kg/ha; sprayed after emergence; judged 14 days after treatment
# Summary of the method: (§3)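 Weeds and soybean grown in soil-filled vats to set leaf stages, then sprayed post-emergence with the compound at a prescribed concentration. Weed-killing rate and crop phytotoxicity judged 14 days after treatment.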
# [6] = tested on: barnyard grass (Echinochloa crus-galli Beauv.), Ec; experiment: as above; details: dosage 5 kg/ha; sprayed after emergence; judged 14 days after treatment
# Summary of the method: as §3
# [7] = tested on: cocklebur (Xanthium strumarium L.), Xs; experiment: as above; details: dosage 5 kg/ha; sprayed after emergence; judged 14 days after treatment
# Summary of the method: as §3
# [8] = tested on: velvetleaf (Abutilon theophtasti L.), At; experiment: as above; details: dosage 5 kg/ha; sprayed after emergence; judged 14 days after treatment
# Summary of the method: as §3
# [9] = tested on: forxtail grass (Alopecurus aequalis var. amurensis Ohwi), Am; experiment: as above; details: dosage 5 kg/ha; sprayed after emergence; judged 14 days after treatment
# Summary of the method: as §3
# [10] = tested on: bird's eye speedwell (Veronica persica Poir.), Vp; experiment: as above; details: dosage 5 kg/ha; sprayed after emergence; judged 14 days after treatment
# Summary of the method: as §3
# [11] = tested on: cleavers (Galium aparine L.), Ga; experiment: Test Example 3: herbicidal effect on upland weeds before emergence; details: dosage 5 kg/ha
# Summary of the method: (§4)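 Test compound, formulated as a liquid at a fixed concentration, is sprayed before weed emergence. Two weeks later, kill rate is derived and herbicidal activity is rated.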
# [12] = tested on: barnyard grass (Echinochloa crus-galli Beauv.), Ec; experiment: as above; details: dosage 5 kg/ha
# Summary of the method: as §4
# [13] = tested on: cocklebur (Xanthium strumarium L.), Xs; experiment: as above; details: dosage 5 kg/ha
# Summary of the method: as §4
# [14] = tested on: velvetleaf (Abutilon theophtasti L.), At; experiment: as above; details: dosage 5 kg/ha
# Summary of the method: as §4
# [15] = tested on: forxtail grass (Alopecurus aequalis var. amurensis Ohwi), Am; experiment: as above; details: foxtail grass, dosage 5 kg/ha
# Summary of the method: as §4
# [16] = tested on: bird's eye speedwell (Veronica persica Poir.), Vp; experiment: as above; details: dosage 5 kg/ha
# Summary of the method: as §4
# [17] = tested on: soybean plant; experiment: Test Example 4: phytotoxicity to upland crop plants, treatment after emergence; details: dosage 5 kg/ha, sprayed after emergence, judged 14 days after treatment
# Summary of the method: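 Scores of weed-killing rate, with crop phytotoxicity, come from inspection 14 days after plants in soil vats, grown to specified leaf stages, are sprayed with a formulation holding the compound at a prescribed concentration.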
# [18] = tested on: wheat; experiment: as above; details: dosage 5 kg/ha, sprayed after emergence, judged 14 days after treatment
# Summary of the method: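 Seeds sown in soil and covered. Plants raised to specified leaf stages. Agent with test compound at a prescribed concentration sprayed. Herbicidal effect and crop damage scored after 14 days as weed-killing rate.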
# [19] = tested on: barnyard grass (Echinochloa crus-galli Beauv.); experiment: Test Example 2: herbicidal effect on paddy field weeds after emergence; details: Dosage 5 kg/ha; one-leaved stage; 21 days after treatment
# Summary of the method: (§5)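 Weeds in flooded paddy-soil pots were grown to the one-leaved stage, then the soil was treated with the compound solution at a set dosage.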
# [20] = tested on: monochoria (Monochoria vaginalis Presl); experiment: as above; details: Dosage 5 kg/ha; one-leaved stage; 21 days after treatment
# Summary of the method: as §5
# [21] = tested on: bulrush (Scirpus juncoides Roxb.); experiment: as above; details: Dosage 5 kg/ha; one-leaved stage; 21 days after treatment
# Summary of the method: as §5
SMILES,Phytotoxicity Wh [1],Phytotoxicity So [2],Pre-emergence treatment Barnyard grass (herbicidal effect) [3],Pre-emergence treatment Bulrush (herbicidal effect) [4],Herbicidal effect Ga [5],Herbicidal effect Ec [6],Herbicidal effect Xs [7],Herbicidal effect At [8],Herbicidal effect Am [9],Herbicidal effect Vp [10],Herbicidal effect Ga [11],Herbicidal effect Ec [12],Herbicidal effect Xs [13],Herbicidal effect At [14],Herbicidal effect Am [15],Herbicidal effect Vp [16],Phytotoxicity So [17],Phytotoxicity Wh [18],Post-emergence treatment Barnyard grass (herbicidal effect) [19],Post-emergence treatment Monochoria (herbicidal effect) [20],also measured
CCc1ccc(Cl)c(CC)c1NC(=O)c1cc2c(nc1C(=O)NC1CCCC1)COCC2 [compound 447],5 (Crop-killing rate is 100%.),4 (Crop-killing rate is 90-99%.),5 (Weed-killing rate is 100%.),5 (Weed-killing rate is 100%.),5 (Weed-killing rate is 100%.),5 (Weed-killing rate is 100%.),5 (Weed-killing rate is 100%.),5 (Weed-killing rate is 100%.),5 (Weed-killing rate is 100%.),5 (Weed-killing rate is 100%.),5 (Weed-killing rate is 100%.),5 (Weed-killing rate is 100%.),5 (Weed-killing rate is 100%.),5 (Weed-killing rate is 100%.),5 (Weed-killing rate is 100%.),5 (Weed-killing rate is 100%.),4 (Crop-killing rate is 90-99%.),5 (Crop-killing rate is 100%.),5 (Weed-killing rate is 100%.),5 (Weed-killing rate is 100%.),Post-emergence treatment Bulrush (herbicidal effect) [21]: 5 (Weed-killing rate is 100%.)
CCCNC(=O)c1nc2c(cc1C(=O)Nc1cccc(Cl)c1C)CCOC2 [compound 450],4 (Crop-killing rate is 90-99%.),4 (Crop-killing rate is 90-99%.),5 (Weed-killing rate is 100%.),5 (Weed-killing rate is 100%.),4 (Weed-killing rate is 90-99%.),5 (Weed-killing rate is 100%.),4 (Weed-killing rate is 90-99%.),5 (Weed-killing rate is 100%.),5 (Weed-killing rate is 100%.),5 (Weed-killing rate is 100%.),4 (Weed-killing rate is 90-99%.),5 (Weed-killing rate is 100%.),4 (Weed-killing rate is 90-99%.),5 (Weed-killing rate is 100%.),5 (Weed-killing rate is 100%.),5 (Weed-killing rate is 100%.),4 (Crop-killing rate is 90-99%.),4 (Crop-killing rate is 90-99%.),5 (Weed-killing rate is 100%.),5 (Weed-killing rate is 100%.),Post-emergence treatment Bulrush (herbicidal effect) [21]: 5 (Weed-killing rate is 100%.)
CCCNC(=O)c1nc2c(cc1C(=O)Nc1cccc(Cl)c1C)COCC2 [compound 474],4 (Crop-killing rate is 90-99%.),3 (Crop-killing rate is 70-89%.),5 (Weed-killing rate is 100%.),5 (Weed-killing rate is 100%.),4 (Weed-killing rate is 90-99%.),5 (Weed-killing rate is 100%.),4 (Weed-killing rate is 90-99%.),5 (Weed-killing rate is 100%.),5 (Weed-killing rate is 100%.),5 (Weed-killing rate is 100%.),4 (Weed-killing rate is 90-99%.),5 (Weed-killing rate is 100%.),4 (Weed-killing rate is 90-99%.),5 (Weed-killing rate is 100%.),5 (Weed-killing rate is 100%.),5 (Weed-killing rate is 100%.),3 (Crop-killing rate is 70-89%.),3 (Crop-killing rate is 70-89%.),5 (Weed-killing rate is 100%.),5 (Weed-killing rate is 100%.),Post-emergence treatment Bulrush (herbicidal effect) [21]: 5 (Weed-killing rate is 100%.)
CCCNC(=O)c1nc2c(cc1C(=O)Nc1c(CC)ccc(Cl)c1CC)OCCC2 [compound 486],4 (Crop-killing rate is 90-99%.),4 (Crop-killing rate is 90-99%.),5 (Weed-killing rate is 100%.),5 (Weed-killing rate is 100%.),5 (Weed-killing rate is 100%.),5 (Weed-killing rate is 100%.),5 (Weed-killing rate is 100%.),5 (Weed-killing rate is 100%.),5 (Weed-killing rate is 100%.),5 (Weed-killing rate is 100%.),5 (Weed-killing rate is 100%.),5 (Weed-killing rate is 100%.),5 (Weed-killing rate is 100%.),5 (Weed-killing rate is 100%.),5 (Weed-killing rate is 100%.),5 (Weed-killing rate is 100%.),4 (Crop-killing rate is 90-99%.),4 (Crop-killing rate is 90-99%.),5 (Weed-killing rate is 100%.),5 (Weed-killing rate is 100%.),Post-emergence treatment Bulrush (herbicidal effect) [21]: 5 (Weed-killing rate is 100%.)
